Data from patent US9776149B2, “Compositions and methods for preparing nanoformulations and systems for nano-delivery using focused acoustics” (Covaris, Inc., priority 2010, dated 2017).
Values belong to the compound of their own block, whether it stands above or below them.

Legend:
[1] = Particle size of drug suspensions before and after focused acoustic processing (Malvern Mastersizer 2000 / Zetasizer Nano ZS-90); type: physicochemical
Excerpt: Particle size distributions of mixtures and/or nanoformulations described herein may be measured using dynamic laser light scattering, also called Photon correlation spectroscopy (e.g., using Malvern Zetasizer-S, Zetasizer Nano ZS-90 or Mastersizer 2000 instruments; Malvern Instruments Inc.; Southborough Mass.). The Malvern Zetasizer-S instrument was used to estimate average particle sizes with a 4 mW He—Ne laser operating at a wavelength of 633 nm and an avalanche photodiode detector (APD). The average size of particles in a mixture may be estimated as the mean hydrodynamic size. The particle size distribution may be estimated according to polydispersity index (PDI), which is known in the art as a measure of the tightness of a distribution. The average size of particles and the PDI of mixtures and nanoformulations discussed herein are calculated according to the International Standard on dynamic light scattering, ISO 13321.
Suspension mixtures were prepared in water (deionized and purified by a Barnstead water purification system), methyl cellulose (from Sigma Aldrich) and sodium lauryl sulfate (from Fisher Scientific) for Ibuprofen (from Spectrum Chemicals), Cinnarizine (from Spectrum Chemicals), Indomethacin (from Spectrum Chemicals) and Griseofulvin (from MP Bio). The initial particle sizes of these suspension mixtures was reduced subject to focused acoustic processing using a Covaris SF220 High Performance Formulation Processing System under 150 Watts of power. Particle size distributions were measured using a Malvern Zetasizer Nano ZS-90 in the nanometer particle size range and a Malvern Mastersizer 2000 in the micron particle size range.
Suspension mixtures included water, 0.5% methyl cellulose and 0.1% sodium lauryl sulfate for Ibuprofen, Cinnarizine, Indomethacin and Griseofulvin at 15 mg/mL for batches of 2 mL, 12 mL and 18 mL. The 2 mL, 12 mL and 18 mL batches were subject to focused acoustic processing for 5 minutes, 5 minutes and 10 minutes, respectively. […] The image 400 prior to exposure to the focused acoustics depicts particles that are substantially larger (e.g., 15-20×) than corresponding particles shown in the image 402 after treatment of the particles to the focused acoustics. Particle size results for each of the four compounds are provided in Table 1 (particle sizes are noted as d90 unless specified otherwise).
The concentration of Ibuprofen was then varied in respective suspensions at fixed volumes of 2 mL, 12 mL and 18 mL. […] For instance, after 10 minutes of focused acoustic processing, the percent difference of the greatest variation in d90 particle size (i.e., 39.53-34.04=5.49) between concentrations (i.e., for 1 mg/mL, 15 mg/mL and 100 mg/mL) as compared to the initial d90 particle size (i.e., 203.67) is less than 3%.
Suspension mixtures included water, 0.025% methyl cellulose and 0.1% sodium lauryl sulfate for Ibuprofen, Cinnarizine, Indomethacin and Griseofulvin at 5 mg/mL for 2 mL batches. Each batch was subject to focused acoustic processing for 15 minutes and 30 minutes, respectively. Table 3 lists the average particle size results for each of the four compounds. Within 15 minutes, nano-suspensions were generated with an average particle size ranging between 100 nm and 280 nm for each of the mixtures. Within 30 minutes, an average particle size range of between 20 nm and 97 nm was achieved.
Using a scale-up system and without changing the mechanical attributes of the particle size reduction process, the Ibuprofen suspension mixture was increased to 250 mL. The flow rate was set to 30 mL/min. […] Suspension aliquots were analyzed by HPLC using a stability-indicating method as a guide. […] Through 60 minutes of focused acoustic processing, the particle size distribution of the suspension was measured to have a relative standard deviation of 0.38%. […]

[2] = Homogeneity and chemical stability of 250 mL Ibuprofen suspension (sampling at different depths, HPLC); type: physicochemical
Experimental: Using a scale-up system and without changing the mechanical attributes of the particle size reduction process, the Ibuprofen suspension mixture was increased to 250 mL. The flow rate was set to 30 mL/min. […] Suspension aliquots were analyzed by HPLC using a stability-indicating method as a guide. […] Through 60 minutes of focused acoustic processing, the particle size distribution of the suspension was measured to have a relative standard deviation of 0.38%. […] FIG. 7 illustrates the results of such size reduction over time for d90 particle size 410, d50 particle size 412 and d10 particle size 414.

[3] = 15 mg/mL suspension, 2 mL, 5 min
[4] = 15 mg/mL suspension, 12 mL, 5 min
[5] = 15 mg/mL suspension, 18 mL, 10 min
[6] = 15 mg/mL suspension, Initial (before focused acoustic processing)
[7] = nano-suspension, 5 mg/mL, 2 mL batch, 15 min
[8] = nano-suspension, 5 mg/mL, 2 mL batch, 30 min
[9] = nano-suspension, 5 mg/mL, 2 mL batch, Initial
[10] = 1, 15 and 100 mg/mL, after 10 minutes of processing

Compound: C(=C\c1ccccc1)/CN1CCN(C(c2ccccc2)c2ccccc2)CC1 [Cinnarizine]
Particle size (d90) [1, 3]: 37.29 microns
Particle size (d90) [1, 4]: 41.73 microns
Particle size (d90) [1, 5]: 43.00 microns
Particle size (d90) [1, 6]: 149.17 microns
Average particle size ([1]; 250 mL scale-up, 1 hour of processing): 1 micron
Average particle size ([1]; 250 mL scale-up, about 9 hours): approximately 200 nm
Average particle size ([1]; 250 mL scale-up, starting): approximately 200 microns
Average particle size [1, 7]: 280 nm
Average particle size [1, 8]: 56.85 nm
Average particle size [1, 9]: 149.17 microns

Compound: CC(C)Cc1ccc(C(C)C(=O)O)cc1 (stereo not drawn) [Ibuprofen]
Homogeneity of suspension ([2]; first measured time point of 15 minutes): homogeneous
Chemical stability (impurity growth, HPLC) ([2]; over 60 minutes of processing): no impurity growth
% of particles below 20 microns [1, 3]: (100% of particles
Particle size (d90) [1, 3]: 12.55 microns
% of particles below 40 microns [1, 4]: (97% of particles
Particle size (d90) [1, 4]: 33.35 microns
% of particles below 40 microns [1, 5]: (97% of particles
Particle size (d90) [1, 5]: 39.53 microns
% of particles above 40 microns ([1]; 15 mg/mL suspension, Initial): (97% of particles
Particle size (d90) [1, 6]: 203.67 microns
Particles prior to focused acoustics larger than particles after treatment (micrographs, FIG. 6) ([1]; 15 mg/mL, 50× magnification): 15-20 ×
Greatest variation in d90 particle size between concentrations [1, 10]: 5.49
Percent difference of greatest variation in d90 between concentrations compared to initial d90 [1, 10]: less than 3%
Percentage of particles below 40 microns ([1]; 250 mL scale-up, 15 min): 90%
d10 ([1]; 250 mL scale-up, 15 min): 6.805 microns
d50 ([1]; 250 mL scale-up, 15 min): 21.701 microns
d90 ([1]; 250 mL scale-up, 15 min): 39.726 microns
Percentage of particles below 40 microns ([1]; 250 mL scale-up, 30 min): 93.57%
d10 ([1]; 250 mL scale-up, 30 min): 6.023 microns
d50 ([1]; 250 mL scale-up, 30 min): 19.055 microns
d90 ([1]; 250 mL scale-up, 30 min): 36.328 microns
Percentage of particles below 40 microns ([1]; 250 mL scale-up, 45 min): 98.31%
d10 ([1]; 250 mL scale-up, 45 min): 3.583 microns
d50 ([1]; 250 mL scale-up, 45 min): 16.167 microns
d90 ([1]; 250 mL scale-up, 45 min): 31.091 microns
Percentage of particles below 40 microns ([1]; 250 mL scale-up, 60 min): 98.39%
d10 ([1]; 250 mL scale-up, 60 min): 3.351 microns
d50 ([1]; 250 mL scale-up, 60 min): 14.843 microns
d90 ([1]; 250 mL scale-up, 60 min): 28.005 microns
Percentage of particles below 40 microns ([1]; 250 mL scale-up, Initial): 5%
d10 ([1]; 250 mL scale-up, Initial): 50 microns
d50 ([1]; 250 mL scale-up, Initial): 97.834 microns
d90 ([1]; 250 mL scale-up, Initial): 203.67 microns
Particle size (d90) ([1]; Table 2, 1 mg/mL, 2 mL, 5 min): 12.55 microns
Particle size (d90) ([1]; Table 2, 1 mg/mL, 12 mL, 5 min): 33.35 microns
Particle size (d90) ([1]; Table 2, 1 mg/mL, 18 mL, 10 min): 39.53 microns
Particle size (d90) ([1]; Table 2, 1 mg/mL, Initial): 203.67 microns
Particle size (d90) ([1]; Table 2, 15 mg/mL, 2 mL, 5 min): 19.03 microns
Particle size (d90) ([1]; Table 2, 15 mg/mL, 12 mL, 5 min): 34.88 microns
Particle size (d90) ([1]; Table 2, 15 mg/mL, 18 mL, 10 min): 34.04 microns
Particle size (d90) ([1]; Table 2, 15 mg/mL, Initial): 203.67 microns
Particle size (d90) ([1]; Table 2, 100 mg/mL, 2 mL, 5 min): 29.54 microns
Particle size (d90) ([1]; Table 2, 100 mg/mL, 12 mL, 5 min): 37.78 microns
Particle size (d90) ([1]; Table 2, 100 mg/mL, 18 mL, 10 min): 35.53 microns
Particle size (d90) ([1]; Table 2, 100 mg/mL, Initial): 203.67 microns
Average particle size [1, 7]: 110 nm
Average particle size [1, 8]: 97 nm
Average particle size [1, 9]: 203.67 microns

The next lines start with the values.

Particle size (d90) [1, 3]: 16.86 microns
Particle size (d90) [1, 4]: 31.45 microns
Particle size (d90) [1, 5]: 31.01 microns
Particle size (d90) [1, 6]: 44.45 microns
Average particle size [1, 7]: 100 nm
Average particle size [1, 8]: 90 nm
Average particle size [1, 9]: 44.45 microns
Compound: COC1=CC(=O)C[C@@H](C)[C@]12Oc1c(Cl)c(OC)cc(OC)c1C2=O [Griseofulvin]

Particle size (d90) [1, 3]: 20.88 microns
Particle size (d90) [1, 4]: 38.32 microns
Particle size (d90) [1, 5]: 28.73 microns
Particle size (d90) [1, 6]: 239.88 microns
Average particle size ([1]; in water, after exposure to focused acoustic energy (FIG. 12)): approximately 5 microns
Average particle size [1, 7]: 127.4 nm
Average particle size [1, 8]: 20 nm
Average particle size [1, 9]: 239.88 microns
Compound: COc1ccc2c(c1)c(CC(=O)O)c(C)n2C(=O)c1ccc(Cl)cc1 [Indomethacin]

Average particle size ([1]; 250 mL in water, no surfactant, 24 degrees C., in under 80 minutes): less than 10 microns
Average particle size ([1]; 250 mL in water, no surfactant, before processing): over 200 microns
Compound: O=c1c(O)c(-c2ccc(O)c(O)c2)oc2cc(O)cc(O)c12 [Quercetin]
